pIC50: −log10 of the molar value. Like-named read-outs stand apart in the source and are kept apart here.
Legend:
[1] = test system: contractile response of isolated guinea pig ileum to angiotensin I; assay: Inhibition of contractile response of isolated guinea pig ileum to angiotensin I; type: cell-based; conditions: angiotensin I 0.1 μg/ml, compound added 5 min before, 30° C., read-out: Angiotensin I IC50 (50% inhibition of angiotensin I activity inducing the contraction of guinea pig ileum)
Text: As the method of measurement of angiotensin I-converting enzyme activity, bioassay for the contractile response of isolated smooth muscle or the pressor response of normal animals and biochemical assay for the enzyme isolated from lung or other organs of animals are known. The former is found more advantageous than the latter for the examination of the convertion of angiotensin I to angiotensin II in vivo.
In the present study, therefore, we adopted the bioassay for contractile response of isolated guinea pig ileum to angiotensin I.
(§1) Measurement of inhibitory activity of angiotensin I-converting enzyme
(§2) Isolated guinea pig ileum was suspended in the organ bath containing 20 ml of Tyrode's solution of 30° C. gassed with 95% O2 +5% CO2. The contraction induced by the addition of angiotensin I (0.1 μg/ml) at intervals of 10 minutes was recorded on a recticorder (Nihon Koden) for 90 seconds using FD pick up (ST-1T-H, Nihon Koden).
(§3) The test compounds were added to the bath 5 minutes before the addition of angiotensin I.
The inhibitory activity of angiotensin I-converting enzyme was calculated by the following formula. [formula] A: contractile intensity of angiotensin I before addition of the compound B: contractile intensity of angiotensin I after addition of the compound

[2] = test system: contractile response to bradykinin (isolated guinea pig ileum); assay: Augmentation of contractile response of isolated guinea pig ileum to bradykinin; type: cell-based; conditions: bradykinin 0.005 μg/ml, compound added 5 min before, 30° C., read-out: Bradykinin AC50 (50% augmentation of bradykinin activity inducing the contraction of guinea pig ileum)
Method: as §2, §3
From the fact that kininase II, which destroys bradykinin having contractive action on isolated guinea pig ileum, is thought to be identical with angiotensin I-converting enzyme, augmentation of the contractile response to bradykinin by test compounds was examined by using bradykinin (0.005 μg/ml) in place of angiotensin I according to the above mentioned method.

[3] = target: T1, angiotensin I-converting enzyme (Oryctolagus cuniculus, UniProt P12822); assay: Inhibition of angiotensin I-converting enzyme by spectrophotometry (HHL substrate); type: biochemical; conditions: enzyme from rabbit lung; 5 mM HHL; pH 8.3; 37° C., 30 min
T1 construct: angiotensin I-converting enzyme extracted from rabbit lung; from tissue; host or cells: rabbit lung
T1 sequence (P12822 34-1310): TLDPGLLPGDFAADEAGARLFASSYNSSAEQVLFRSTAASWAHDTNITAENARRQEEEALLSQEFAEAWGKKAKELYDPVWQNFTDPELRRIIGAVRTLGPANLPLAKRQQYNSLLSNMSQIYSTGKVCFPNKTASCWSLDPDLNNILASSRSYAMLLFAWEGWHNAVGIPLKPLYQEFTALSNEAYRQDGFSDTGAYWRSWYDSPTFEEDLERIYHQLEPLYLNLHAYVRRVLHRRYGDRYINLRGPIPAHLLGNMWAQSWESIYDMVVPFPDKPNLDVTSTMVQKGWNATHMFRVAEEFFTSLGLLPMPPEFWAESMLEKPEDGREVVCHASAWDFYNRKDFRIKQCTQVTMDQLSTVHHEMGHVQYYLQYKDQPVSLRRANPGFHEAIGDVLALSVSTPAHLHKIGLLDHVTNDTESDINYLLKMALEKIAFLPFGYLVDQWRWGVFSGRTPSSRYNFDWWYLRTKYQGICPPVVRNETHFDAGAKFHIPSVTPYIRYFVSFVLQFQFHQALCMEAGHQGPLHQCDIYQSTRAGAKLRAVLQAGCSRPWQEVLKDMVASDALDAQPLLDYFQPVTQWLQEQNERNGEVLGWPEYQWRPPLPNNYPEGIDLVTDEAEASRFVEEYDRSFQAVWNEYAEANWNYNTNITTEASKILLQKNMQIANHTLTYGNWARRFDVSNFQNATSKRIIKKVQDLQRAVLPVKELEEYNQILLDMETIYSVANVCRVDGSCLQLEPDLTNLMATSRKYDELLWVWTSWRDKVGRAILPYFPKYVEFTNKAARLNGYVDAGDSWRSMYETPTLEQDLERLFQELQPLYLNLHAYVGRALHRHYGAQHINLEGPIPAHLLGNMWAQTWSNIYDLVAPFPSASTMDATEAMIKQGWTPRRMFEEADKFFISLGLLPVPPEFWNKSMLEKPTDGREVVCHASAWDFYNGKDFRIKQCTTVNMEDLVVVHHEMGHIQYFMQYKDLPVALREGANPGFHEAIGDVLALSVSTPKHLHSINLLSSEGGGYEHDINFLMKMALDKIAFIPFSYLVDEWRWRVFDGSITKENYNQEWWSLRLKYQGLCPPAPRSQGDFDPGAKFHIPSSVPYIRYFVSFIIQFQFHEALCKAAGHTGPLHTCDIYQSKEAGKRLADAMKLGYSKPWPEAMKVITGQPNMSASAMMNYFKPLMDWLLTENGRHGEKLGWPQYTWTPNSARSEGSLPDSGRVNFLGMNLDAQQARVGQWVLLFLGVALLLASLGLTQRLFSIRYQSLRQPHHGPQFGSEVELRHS
Method: That is, the absorbance of hippuric acid was measured, which is liberated by incubating hippuryl-L-histidyl-L-leucine (HHL) as substrate in the presence of angiotensin I-converting enzyme extracted from rabbit lung.
as §1
The reaction mixture is as follows:
100 mM phosphate buffer (pH 8.3)
10^-3 ~10^-9 M enzyme inhibitor
0.25 ml of the above mixture was incubated at 37° C. for 30 minutes and the reaction was stopped by adding 0.25 ml of 1 N hydrochloric acid. To this solution, 1.5 ml of ethyl acetate was added in order to extract hippuric acid. 1.0 ml of ethyl acetate layer was collected and evaporated to dryness, and the residue obtained was dissolved in 1.0 ml of water.
The inhibitory activity of angiotensin I-converting enzyme was calculated by the following formula: [formula]

[4] = test system: pressor response to angiotensin I; assay: Inhibition of pressor response to angiotensin I in rats after oral administration; type: in vivo, rat (male Wistar); conditions: angiotensin I 300 ng/kg i.v.; for Inhibition (%) of pressor response to angiotensin I, 5 min / Inhibition (%) of pressor response to angiotensin I, 15 min / Inhibition (%) of pressor response to angiotensin I, 25 min / Inhibition (%) of pressor response to angiotensin I, 35 min / Inhibition (%) of pressor response to angiotensin I, 45 min / Inhibition (%) of pressor response to angiotensin I, 55 min / Inhibition (%) of pressor response to angiotensin I, 65 min / Inhibition (%) of pressor response to angiotensin I, 75 min / Inhibition (%) of pressor response to angiotensin I, 85 min: dose: 3, 45, 49 1.8 mg/kg, 4, 46 1.3, 50 1.4, 76 2.0, 77 1.5; for Inhibition (%) of pressor response to angiotensin I, 95 min: dose: 45, 49 1.8 mg/kg, 4, 46 1.3, 50 1.4, 76 2.0, 77 1.5; for Inhibition (%) of pressor response to angiotensin I, 105 min / Inhibition (%) of pressor response to angiotensin I, 115 min: dose: 45, 49 1.8 mg/kg, 46 1.3, 50 1.4, 76 2.0, 77 1.5
Method: Male Wistar strain rats weighing about 200-300 g were used.
Under ether anesthesia, polyethylene cannulae are inserted into carotid arthery and jugular vein. The cannula to carotid artery is connected to an electric transducer, while the cannula to jugular vein is connected to an apparatus for continuous infusion. After the complete recovery from anesthesia, angiotensin I is infused intravenously in a dose of 300 ng/kg by the apparatus for continuous infusion, and the pressor response is recorded by polygraph (Nihon Koden, RM-150).
The compounds of this invention suspended in 0.5% tragacanth solution are administered orally in a dose of 0.3 ml per 100 g of body weight, and the pressor response to angiotensin I infused intravenously is measured with time.
The inhibitory activity of the compounds against angiotensin I-converting enzyme is expressed as the percent inhibition of pressor response to angiotensin I.

## C[C@H](CS)C(=O)N1C(c2cc(Cl)ccc2O)SC[C@H]1C(=O)O (stereo partly drawn) [Compound 60]
[1]; Cavia porcellus
  pIC50: 7.04
[2]; Cavia porcellus
  AC50: 2 nM
[3]
  pIC50: 7.12

## C[C@H](CS)C(=O)N1C(c2cccc([N+](=O)[O-])c2)SC[C@H]1C(=O)O (stereo partly drawn) [Compound 34]
[1]; Cavia porcellus
  pIC50: 6.74
[2]; Cavia porcellus
  AC50: 2.5 nM
[3]
  pIC50: 6.40

## C[C@H](CS)C(=O)N1C(CCS)SC[C@H]1C(=O)O (single isomer, unassigned) [Compound 8b]
[1]
  pIC50: 6.85
[2]
  AC50: 1.1 nM
[3]
  pIC50: 6.54

## CC(C)=CCCC(C)CC1SC[C@@H](C(=O)O)N1C(=O)[C@H](C)CS (stereo partly drawn) [Compound 2]
[1]; Cavia porcellus
  pIC50: 6.32
[2]; Cavia porcellus
  AC50: 19 nM
[3]
  pIC50: 5.49

## COc1cccc(C2SC[C@@H](C(=O)O)N2C(=O)CCS)c1O (stereo partly drawn) [Compound 73]
[1]; Cavia porcellus
  pIC50: 7.44
[2]; Cavia porcellus
  AC50: 1.1 nM
[3]
  pIC50: 7.03

## C[C@H](CS)C(=O)N1C(c2cccs2)SC[C@H]1C(=O)O (stereo partly drawn) [Compound 91]
[1]; Cavia porcellus
  pIC50: 6.15
[2]; Cavia porcellus
  AC50: 10 nM
[3]
  pIC50: 6.43

## O=C(O)[C@@H]1CSC(c2ccccc2Cl)N1C(=O)CCS (stereo partly drawn) [Compound 24]
[1]; Cavia porcellus
  pIC50: 6.15
[2]; Cavia porcellus
  AC50: 16 nM
[3]
  pIC50: 5.44

## C[C@H](CS)C(=O)N1C(c2ccco2)SC[C@H]1C(=O)O (stereo partly drawn) [Compound 85]
[1]; Cavia porcellus
  pIC50: 6.62
[2]; Cavia porcellus
  AC50: 3.7 nM
[3]
  pIC50: 6.47

## O=C(O)[C@@H]1CSC(c2ccccc2O)N1C(=O)CS (stereo partly drawn) [Compound 44]
[1]; Cavia porcellus
  pIC50: 6.25
[2]; Cavia porcellus
  AC50: 5 nM
[3]
  pIC50: 5.66

## C[C@H](CS)C(=O)N1C(c2cccc(O)c2)SC[C@H]1C(=O)O (stereo partly drawn) [Compound 54]
[1]; Cavia porcellus
  pIC50: 6.82
[2]; Cavia porcellus
  AC50: 1.7 nM
[3]
  pIC50: 6.64

## COc1ccccc1C1SC[C@@H](C(=O)O)N1C(=O)[C@H](C)CS (stereo partly drawn) [Compound 64]
[1]; Cavia porcellus
  pIC50: 6.30
[2]; Cavia porcellus
  AC50: 8 nM
[3]
  pIC50: 6.38

## O=C(SCCC(=O)N1C(c2ccccc2O)SC[C@H]1C(=O)O)c1ccccc1 (stereo partly drawn) [Compound 45, (4R)-3-(S-Benzoyl-3-mercaptopropanoyl)-2-(2-hydroxyphenyl)-4-thiazolidinecarboxylic acid]
[4]
  Inhibition (%) of pressor response to angiotensin I, 5 min: 20.0%
  Inhibition (%) of pressor response to angiotensin I, 15 min: 26.6%
  Inhibition (%) of pressor response to angiotensin I, 25 min: 30.1%
  Inhibition (%) of pressor response to angiotensin I, 35 min: 31.8%
  Inhibition (%) of pressor response to angiotensin I, 45 min: 20.9%
  Inhibition (%) of pressor response to angiotensin I, 55 min: 13.5%
  Inhibition (%) of pressor response to angiotensin I, 65 min: 19.0%
  Inhibition (%) of pressor response to angiotensin I, 75 min: 14.9%
  Inhibition (%) of pressor response to angiotensin I, 85 min: 20.9%
  Inhibition (%) of pressor response to angiotensin I, 95 min: 10.3%
  Inhibition (%) of pressor response to angiotensin I, 105 min: 10.3%
  Inhibition (%) of pressor response to angiotensin I, 115 min: 8.8%

## COc1ccc(C2SC[C@@H](C(=O)O)N2C(=O)[C@H](C)CSC(=O)c2ccccc2)c(O)c1 (stereo partly drawn) [Compound 76]
[4]
  Inhibition (%) of pressor response to angiotensin I, 5 min: 26.0%
  Inhibition (%) of pressor response to angiotensin I, 15 min: 45.9%
  Inhibition (%) of pressor response to angiotensin I, 25 min: 56.1%
  Inhibition (%) of pressor response to angiotensin I, 35 min: 55.9%
  Inhibition (%) of pressor response to angiotensin I, 45 min: 58.2%
  Inhibition (%) of pressor response to angiotensin I, 55 min: 47.1%
  Inhibition (%) of pressor response to angiotensin I, 65 min: 48.9%
  Inhibition (%) of pressor response to angiotensin I, 75 min: 40.7%
  Inhibition (%) of pressor response to angiotensin I, 85 min: 41.7%
  Inhibition (%) of pressor response to angiotensin I, 95 min: 32.2%
  Inhibition (%) of pressor response to angiotensin I, 105 min: 30.6%
  Inhibition (%) of pressor response to angiotensin I, 115 min: 28.5%

## C[C@H](CSC(=O)c1ccccc1)C(=O)N1C(C2CCCCC2)SC[C@H]1C(=O)O (stereo partly drawn) [Compound 3]
[4]
  Inhibition (%) of pressor response to angiotensin I, 5 min: 35.2%
  Inhibition (%) of pressor response to angiotensin I, 15 min: 40.8%
  Inhibition (%) of pressor response to angiotensin I, 25 min: 26.9%
  Inhibition (%) of pressor response to angiotensin I, 35 min: 17.9%
  Inhibition (%) of pressor response to angiotensin I, 45 min: 14.2%
  Inhibition (%) of pressor response to angiotensin I, 55 min: 14.8%
  Inhibition (%) of pressor response to angiotensin I, 65 min: 6.3%
  Inhibition (%) of pressor response to angiotensin I, 75 min: 9.5%
  Inhibition (%) of pressor response to angiotensin I, 85 min: 5.8%

— patent US4356183A, “Antihypertensive 4-thiazolidinecarboxylic acids (pyridyl derivatives)” (Santen Pharmaceutical Co., Ltd., priority 1978, dated 1982)
